This note sets out measurements from PMC4930285 (Biomolecules & Therapeutics, 2016).

Experiment [1] has as its target T1, α7 nicotinic acetylcholine receptor (α7 nAChR) (Homo sapiens, UniProt P36544). The experiment in a line: two-electrode voltage clamp in Xenopus oocytes. The class given is cell-based. (In general: Two-electrode voltage clamp is typically applied to oocytes expressing channels or transporters.)
Experiment [2] deals with T1, α7 nicotinic acetylcholine receptor (α7 nAChR). The experiment in a line: two-electrode voltage clamp in Xenopus oocytes. The class given is cell-based. This is another data set of the same source.

The structures appear in SMILES notation.

T1 sequence (P36544 23-502): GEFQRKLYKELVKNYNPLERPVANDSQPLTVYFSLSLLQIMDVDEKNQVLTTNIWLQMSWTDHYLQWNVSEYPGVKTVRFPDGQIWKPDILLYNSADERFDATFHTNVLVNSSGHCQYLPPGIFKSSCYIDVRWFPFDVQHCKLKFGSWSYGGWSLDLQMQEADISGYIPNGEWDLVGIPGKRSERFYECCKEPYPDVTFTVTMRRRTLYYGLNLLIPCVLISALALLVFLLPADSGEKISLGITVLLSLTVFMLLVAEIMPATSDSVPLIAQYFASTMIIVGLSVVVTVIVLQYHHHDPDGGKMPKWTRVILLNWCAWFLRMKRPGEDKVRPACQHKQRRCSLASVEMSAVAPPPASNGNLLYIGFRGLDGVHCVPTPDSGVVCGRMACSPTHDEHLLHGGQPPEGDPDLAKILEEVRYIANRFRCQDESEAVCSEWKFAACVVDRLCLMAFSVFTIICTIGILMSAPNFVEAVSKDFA

As usually defined, the EC50 is the concentration at which the effect is half-maximal. Low values mean an effect from little substance, high ones a need for much substance. For `O=c1c(O)c(-c2ccc(O)c(O)c2)oc2cc(O)cc(O)c12` [Que, quercetin], the EC50 in experiment [1] came to 35.1 ± 3.8 µM.

Usually IC50 stands for the point on the concentration scale where inhibition reaches its midpoint. Read a low IC50 as greater potency in that assay. In turn, `C[C@@H]1O[C@@H](OC[C@H]2O[C@@H](Oc3c(-c4ccc(O)c(O)c4)oc4cc(O)cc(O)c4c3=O)[C@H](O)[C@@H](O)[C@@H]2O)[C@H](O)[C@H](O)[C@H]1O` [Rutin, quercetin-3-O-rutinoside] displayed an IC50 in experiment [2] of 70.4 ± 3.6 µM.
